# Assays:
# HT29 colon cancer cells = experiment: Sulforhodamine B (SRB) cell growth assay in HT29 colon cancer cells; assay type: cell-based
# Procedure: HT-29, a cell line derived from colorectal adenocarcinoma (ATCC, HTB 38), grows in McCoy's 5A medium (Biowhittaker, Inc. Walkersville, Md.). NCM460, a cell line derived from a normal human colon (InCell Corp. San Antonio, Tex.), grows in M3 Base media (InCell Corp. San Antonio, Tex.).
# Both cell lines are kept at 37° C. and 5% CO2 atmosphere. Both media are supplemented with 10% fetal bovine serum (FBS, Biowhittaker, Inc. Walkersville, Md.).
# Cells are fixed in situ by the gentle addition of 50 μl of cold 50% (w/v) TCA (final concentration, 10% TCA) and incubated for 60 minutes at 4° C. The supernatant is discarded, and the plates are washed five times with tap water and air dried. Sulforhodamine B (SRB) solution (100 μl) at 0.4% (w/v) in 1% acetic acid is added to each well, and plates are incubated for 10 minutes at room temperature. After staining, unbound dye is removed by washing five times with 1% acetic acid and the plates are air dried. Bound stain is subsequently solubilized with 100 μl 10 mM trizma base for 5 minutes, and the absorbance at wavelength of 490 nm was spectrophotometrically measured using a microplate reader Elx800 (Bio-Tek instruments, Inc.).
# Cells were seeded in 96-well cluster tissue culture plates (Costar), containing 100 μl complete growth medium per well at densities of 5,000 cells per well. Incubated at 37° C. in a humidified tissue culture incubator. After 24 Hour, 100 μl complete medium containing 5 half-log dilutions of the 5FU from 2*10^−4 to 2*10^−6 M was added into each well (final concentrations are from 10^−4 to 10^−6 M). Six replicates were used for each concentration. Media containing 0.125% DMSO was used as control. After 48 hours of incubation with 5FU in medium, cell proliferation was assessed using the SRB assay.
# Percentage growth (Growth%) is calculated as: [(Ti−Tz)/(C−Tz)]×100 [absorbance measurements at time zero (Tz), control growth (C), and test growth in the presence of drug at the different concentration levels (Ti)].
# Similar to the method used in testing GI50 of 5FU: HT29 was plated at 5000 cells per well. […] After 48 hour treatment, cell growth was assessed using SRB assay.
# The protocol was the same as described above, except cells were exposed to 5FU at concentration ranging from 10^−4 to 10^−6 M with chokeberry ARE at concentration of 1.56, 5, 15.6, 50 μg monomeric anthocyanin/ml growth media.
# The protocol was the similar to Experiment 1: Cells were exposed to half-log diluted SAC at concentration ranging from 3.2 to 1000 μM for 48 hour. Media containing 0.5% filtered water was used as control.
# This experiment was to determine whether the antioxidant, SAC would enhance the effect of 5FU in HT29 cells. The protocol was the same as Experiment 3, except cells were exposed to 5FU at concentration ranging from 10^−4 to 10^−6 M with SAC at concentration of 10, 100, 1000 μM.
# [1] = 5FU 1.0E−4 M, 48 h, experiment 1
# [2] = 5FU 1.0E−4 M, 48 h, experiment 2
# [3] = 5FU 1.0E−4 M, 48 h, experiment 3
# [4] = 5FU 1.0E−4 M, 48 h, experiment 4
# [5] = 5FU 1.0E−4.5 M, 48 h, experiment 1
# [6] = 5FU 1.0E−4.5 M, 48 h, experiment 2
# [7] = 5FU 1.0E−4.5 M, 48 h, experiment 3
# [8] = 5FU 1.0E−4.5 M, 48 h, experiment 4
# [9] = 5FU 1.0E−5 M, 48 h, experiment 1
# [10] = 5FU 1.0E−5 M, 48 h, experiment 2
# [11] = 5FU 1.0E−5 M, 48 h, experiment 3
# [12] = 5FU 1.0E−5 M, 48 h, experiment 4
# [13] = 5FU 1.0E−5.5 M, 48 h, experiment 1
# [14] = 5FU 1.0E−5.5 M, 48 h, experiment 2
# [15] = 5FU 1.0E−5.5 M, 48 h, experiment 3
# [16] = 5FU 1.0E−5.5 M, 48 h, experiment 4
# [17] = 5FU 1.0E−6 M, 48 h, experiment 1
# [18] = 5FU 1.0E−6 M, 48 h, experiment 2
# [19] = 5FU 1.0E−6 M, 48 h, experiment 3
# [20] = 5FU 1.0E−6 M, 48 h, experiment 4
# [21] = Table 2: 5FU at 1.0E-4.368 M alone, 48 h
# [22] = Table 6 (1): 5FU 1.00E−04 M, SAC 0
# [23] = Table 6 (1): 5FU 1.00E−05 M, SAC 0
# [24] = Table 6 (1): 5FU 1.00E−06 M, SAC 0
# [25] = Table 6 (2): 5FU 1.00E−04 M, SAC 0
# [26] = Table 6 (2): 5FU 1.00E−05 M, SAC 0
# [27] = Table 6 (2): 5FU 1.00E−06 M, SAC 0
# [28] = rats, 72 hours after 200 mg/kg 5FU i.p., AIN93 diet with or without 4 g anthocyanin/kg
# Excerpt for male Sprague Dawley rats: The purpose of this experiment was to determine if the toxicity of 5FU would be decreased by feeding rats a diet supplemented with anthocyanin-rich extract (ARE) prior to and during 5FU treatment.
# Rats were randomly allocated in two diet groups and maintained for two weeks on either AIN93 or AIN93 plus 4 g anthocyanin/kg (Table 7).
# Seventy-two hours after the 5FU injections, rats were euthanized by CO2 inhalation. Blood was collected by heart puncture into heparinized tubes, the stomach and entire intestines were removed and stomach, duodenum, jejunum, ileum, cecum and colon sections were fixed in formalin for histopathological evaluation. In addition to the gastrointestinal tract, the following organs were also collected at necropsy for histopathological evaluation: heart, liver, kidney, spleen and bone marrow. These tissues were also fixed in formalin. All tissues were then routinely processed and stained with H&E for pathological evaluation.
structure (smiles),measurement,setting,value
"O=c1[nH]cc(F)c(=O)[nH]1 [5FU, 5-fluorouracil]",Growth %,HT29 colon cancer cells; [1],48.88%
same,OD,HT29 colon cancer cells; [1],0.30
same,Growth %,HT29 colon cancer cells; [2],34.83%
same,OD,HT29 colon cancer cells; [2],0.25
same,Growth %,HT29 colon cancer cells; [3],37.16%
same,OD,HT29 colon cancer cells; [3],0.26
same,Growth %,HT29 colon cancer cells; [4],42.91%
same,OD,HT29 colon cancer cells; [4],0.25
same,Growth %,HT29 colon cancer cells; [5],54.63%
same,OD,HT29 colon cancer cells; [5],0.32
same,Growth %,HT29 colon cancer cells; [6],44.48%
same,OD,HT29 colon cancer cells; [6],0.27
same,Growth %,HT29 colon cancer cells; [7],43.58%
same,OD,HT29 colon cancer cells; [7],0.27
same,Growth %,HT29 colon cancer cells; [8],53.85%
same,OD,HT29 colon cancer cells; [8],0.27
same,Growth %,HT29 colon cancer cells; [9],60.38%
same,OD,HT29 colon cancer cells; [9],0.33
same,Growth %,HT29 colon cancer cells; [10],57.93%
same,OD,HT29 colon cancer cells; [10],0.31
same,Growth %,HT29 colon cancer cells; [11],56.76%
same,OD,HT29 colon cancer cells; [11],0.31
same,Growth %,HT29 colon cancer cells; [12],70.85%
same,OD,HT29 colon cancer cells; [12],0.32
same,Growth %,HT29 colon cancer cells; [13],82.11%
same,OD,HT29 colon cancer cells; [13],0.40
same,Growth %,HT29 colon cancer cells; [14],77.24%
same,OD,HT29 colon cancer cells; [14],0.37
same,Growth %,HT29 colon cancer cells; [15],76.69%
same,OD,HT29 colon cancer cells; [15],0.37
same,Growth %,HT29 colon cancer cells; [16],87.85%
same,OD,HT29 colon cancer cells; [16],0.36
same,Growth %,HT29 colon cancer cells; [17],94.25%
same,OD,HT29 colon cancer cells; [17],0.44
same,Growth %,HT29 colon cancer cells; [18],94.83%
same,OD,HT29 colon cancer cells; [18],0.42
same,Growth %,HT29 colon cancer cells; [19],88.51%
same,OD,HT29 colon cancer cells; [19],0.41
same,Growth %,HT29 colon cancer cells; [20],96.36%
same,OD,HT29 colon cancer cells; [20],0.38
same,growth inhibition,HT29 colon cancer cells; 5FU alone at GI50 concentration (FIG. 1),65%
same,Growth %,HT29 colon cancer cells; [21],35.02%
same,OD,HT29 colon cancer cells; [21],0.22
same,Growth %,"HT29 colon cancer cells; Table 3: 5FU 1.0E−4 M, ARE 0",29.77%
same,OD,"HT29 colon cancer cells; Table 3: 5FU 1.0E−4 M, ARE 0",0.20
same,Growth %,"HT29 colon cancer cells; Table 3: 5FU 1.0E−5 M, ARE 0",49.30%
same,OD,"HT29 colon cancer cells; Table 3: 5FU 1.0E−5 M, ARE 0",0.24
same,Growth %,"HT29 colon cancer cells; Table 3: 5FU 1.0E−6 M, ARE 0",82.33%
same,OD,"HT29 colon cancer cells; Table 3: 5FU 1.0E−6 M, ARE 0",0.31
same,Growth %,HT29 colon cancer cells; [22],27.44%
same,OD,HT29 colon cancer cells; [22],0.175
same,Growth %,HT29 colon cancer cells; [23],52.09%
same,OD,HT29 colon cancer cells; [23],0.228
same,Growth %,HT29 colon cancer cells; [24],91.63%
same,OD,HT29 colon cancer cells; [24],0.313
same,Growth %,HT29 colon cancer cells; [25],26.16%
same,OD,HT29 colon cancer cells; [25],0.178
same,Growth %,HT29 colon cancer cells; [26],43.46%
same,OD,HT29 colon cancer cells; [26],0.219
same,Growth %,HT29 colon cancer cells; [27],79.32%
same,OD,HT29 colon cancer cells; [27],0.304
same,"growth of cells, % of control",HT29 colon cancer cells; highest concentration of 5FU alone,30 % of control
same,"growth of cells, % of control",HT29 colon cancer cells; intermediate concentration of 5FU alone,50 % of control
same,"growth of cells, % of control",HT29 colon cancer cells; lowest concentration of 5FU (10^−6 M) alone,80 % of control
same,clinical signs in preliminary experiment,"male Sprague Dawley rats; 2 rats, 5FU 200 mg/kg",caused weight loss and diarrhea
same,bone marrow histopathology,male Sprague Dawley rats; [28],panmyelophthisis of the bone marrow with congestion
same,kidney histopathology,male Sprague Dawley rats; [28],acute toxic nephropathy of the proximal convoluted tubules was present in all 5FU treated animals in mild to moderate severity
same,small intestine histopathology,male Sprague Dawley rats; [28],intestinal villi were moderately to severely denuded
same,overall histopathological changes in tissues,"male Sprague Dawley rats; rats, 5FU 200 mg/kg i.p. or AIN93 plus 4 g anthocyanin/kg diet with saline",significant acute toxicological changes

# From US20060024392A1, “Compositions and methods for enhancing the effectiveness of a chemotherapeutic agent” (priority 2004, published 2006)
